Data: patent US7501238B2, “Skin substitutes for irritancy testing” (priority 2001, dated 2009)
Like-named read-outs stand apart in the source and are kept apart here.

What was measured:
[1] = test system: NIKS organotypic cultures; assay: IL-1α secretion by NIKS organotypic cultures after topical irritant (ELISA); format: cell-based, human; details: 24 hr at 37° C.
Experimental: (§1) Solutions of SDS (0.1%, 0.2%, and 0.5%) were topically applied to air-exposed NIKS organotypic cultures and incubated for 24 hr at 37° C. After 24 hr, the media underneath the cultures was assayed for IL-1α protein using a Quantikine IL-1α ELISA kit (R&D Systems, Minneapolis, Minn.) and cultures were incubated with MTS reagent (Promega Corp., Madison, Wis.) to determine cell viability. Media from untreated cultures contained 25 pg/ml IL-1α, whereas the concentration of IL-1α in cultures treated with 0.1%, 0.2% or 0.5% SDS was 290, 375 and 275 pg/ml respectively.

[2] = test system: NIKS organotypic cultures; assay: MTS cell viability of irritant-treated NIKS organotypic cultures; format: cell-based, human; details: 0.5% SDS, 24 hr
Experimental: as §1
These values correspond well with published IL-1α responses in SDS-exposed skin equivalents (Perkins et al, Toxicological Sciences, 48:218 [1999]).

skin equivalents = details: irritant-treated skin equivalents; 0.2% SDS, 0.005% calcipotriol, 0.025% trans-retinoic acid; cited from earlier work
[3] = test system: in vitro skin equivalent cultures; details: substance added to in vitro cultures, cited from earlier work
[4] = test system: IL-8 promoter sequences between −1472 and +19 in tracheobronchial epithelial cells; details: cited from earlier work

Row | Compound | expression and secretion of the pro-inflammatory cytokines IL-1α and IL-8 (skin equivalents) | Lipid Composition [3] | other results
1 | CCCCCCCCCCCCOS(=O)(=O)[O-].[Na+] [SDS] | induce expression and secretion |  | concentration of IL-1α in media ([1]; 0.1% SDS applied topically): 290 pg/mL; concentration of IL-1α in media ([1]; 0.2% SDS applied topically): 375 pg/mL; concentration of IL-1α in media ([1]; 0.5% SDS applied topically): 275 pg/mL; cell viability (MTS assay) [2]: decreased cell viability
2 | O=C1O[C@H]([C@@H](O)CO)C(O)=C1O [Vitamin C] |  | Major | Lipid Composition ([3]; listed as vitamin C): improved the lipid profile
3 | C=C1/C(=C\C=C2/CCC[C@]3(C)[C@@H]([C@H](C)/C=C/[C@@H](O)C4CC4)CC[C@@H]23)C[C@@H](O)C[C@@H]1O [calcipotriol] | induce expression and secretion |  | 
4 | CC1=C(/C=C/C(C)=C/C=C/C(C)=C/C(=O)O)C(C)(C)CCC1 [trans-retinoic acid] | induce expression and secretion |  | induction of reporter gene containing IL-8 promoter sequences [4]: induced
5 | EGF: epidermal growth factor (NSDSECPLSHDGYCLHDGVCMYIEALDKYACNCVVGYIGERCQYRDLKWWELR; Epidermal growth factor; UniProt P01133 971-1023, looked up) |  | High triglycerides | 
6 | Vitamin E |  | No effect | 
